{"source": "patent EP4585588A1", "about": "“BENZIMIDAZOLE COMPOUND, AND PREPARATION METHOD THEREFOR AND USE THEREOF” (Suzhou Pharmavan Co., Ltd., priority 2022, dated 2024)"}
{"test_system": "myosin heavy chain β (β-MHC)", "conditions": "48 h, 10 µM", "method": "Primary cardiomyocytes of suckling rats were isolated and cultured and inoculated on a cell culture plate. A drug stock solution was taken and separately added to cell wells according to a certain dilution ratio, and a final concentration was 10 µM. After half hour of drug action, a phenylephrine (PE) stock solution was added, and a final concentration of PE was 20 µM. After 48 hours of PE action, cell samples were collected for real-time quantitative PCR assay or cell area measurement.\nSeparation and plating of cardiomyocytes of rats: a certain number of SPF suckling rats were taken and placed in a clean bench according to an actual requirement for the number of cells, thoracic cavities were opened by scissors, hearts were separated, and the hearts were cut into tissue fragments with sterilized surgical scissors; Collagenase Type II (manufacturer: Sigma, article No.: C2-28-100MG) was added to a D-HANKS balanced salt buffer to prepare a 5 µg/mL enzyme digestion solution, and the tissue fragments of hearts were continuously digested for three times in a 37 °C constant-temperature water bath box; about 2 mL of the enzyme digestion solution was added for the first time, a supernatant was discarded after digestion, centrifugation and precipitation of cardiomyocytes and tissue fragments, about 4 mL of the enzyme digestion solution was independently added for the second time and the third time to continue digestion, a supernatant was remained each time, DMEM containing 10% FBS with the same volume as the digestion solution in the supernatant was immediately added to neutralize digestive enzymes, the supernatants for the second time and the third time were combined and centrifuged, a supernatant was discarded, an appropriate amount of DMEM containing 10% FBS was added to resuspend the cardiomyocytes, the cardiomyocytes were inoculated in a 100 mm culture plate and subjected to differential adhesion in a constant-temperature cell incubator for 2 h, and a supernatant was taken for cell count.\nA 24-well plate precoated with 1% gelatin was taken and plated at 1×10^5 cells/well, 500 µL of a 10% FBS+DMEM medium was contained in each well, and cells were cultured in a 37 °C constant-temperature cell incubator for 24 h. Different compounds were independently prepared into a 100 mM mother liquor with DMSO and gradient diluted with a 10% FBS+DMEM medium to prepare a 10 µM final solution of the compound containing 0.5% DMSO. The medium in the 24-well plate was discarded and replaced with a 500 µL/well medium containing a 10 µM compound, and three replicate wells and a negative control well were set for each compound. After 0.5 hours of drug action, PE (manufacturer: Meilun Biotechnology; article No.: MB1602) with a final concentration of 20 µM was added to each well, and no PE was added to the negative control wells; after 48 hours of PE action, sample detection was performed.\nExpression levels of genes related to cardiomyocyte hypertrophy was analyzed via real-time quantitative PCR detection of mRNA level of atrial natriuretic peptide (ANP) and myosin heavy chain β (β-MHC). The steps include extraction of total RNA of cells, reverse transcription synthesis of cDNA and real-time quantitative PCR assay.\nBased on real-time quantitative PCR detection of an mRNA level of ANP of cardiomyocytes, a drug with a potential of anti-cardiomyocyte hypertrophy was preliminarily screened and verified with an mRNA level of another hypertrophy gene β-MHC using a statistical method One-way ANOVA and statistical software GraphPad Prism."}
{"compound": "Cc1nc2cc(-c3cc(C(=O)O)cc(F)c3O)ccc2[nH]1", "note": "[Formula I-10, 3-fluoro-4-hydroxy-5-(2-methyl-1H-benzimidazol-5-yl)benzoic acid]", "Mean (real-time quantitative PCR validation results of cardiomyocyte β-MHC)": 1.14}
{"compound": "COC(=O)c1ccc(O)c(-c2ccc3[nH]c(C)nc3c2)c1", "note": "[Formula I-12, methyl 4-hydroxy-3-(2-methyl-1H-benzimidazol-5-yl) benzoate]", "Mean (real-time quantitative PCR validation results of cardiomyocyte β-MHC)": 1.19}
{"compound": "Cc1nc2cc(-c3cc(CC#N)ccc3O)ccc2[nH]1", "note": "[Formula I-18, 2-(4-hydroxy-3-(2-methyl-1H-benzimidazol-5-yl)phenyl)acetonitrile]", "Mean (real-time quantitative PCR validation results of cardiomyocyte β-MHC)": 1.18}
{"compound": "Cc1nc2cc(-c3cc(CC#N)cc(F)c3O)ccc2[nH]1", "note": "[Formula I-19, 2-(3-fluoro-4-hydroxy-5-(2-methyl-1H-benzimidazol-5-yl)phenyl)acetonitrile]", "Mean (real-time quantitative PCR validation results of cardiomyocyte β-MHC)": 1.26}
{"compound": "CCCc1ccc(O)c(-c2ccc3[nH]c(C)nc3c2)c1", "note": "[Formula I-21, 2-(2-methyl-1H-benzimidazol-5-yl)-4-propylphenol]", "Mean (real-time quantitative PCR validation results of cardiomyocyte β-MHC)": 1.05}
{"compound": "NC(=O)c1ccc(O)c(-c2ccc3[nH]cnc3c2)c1", "note": "[Formula I-27, 4-hydroxy-3-(1H-benzimidazol-5-yl)benzamide]", "Mean (real-time quantitative PCR validation results of cardiomyocyte β-MHC)": 1.27}
{"compound": "NC(=O)c1cc(F)c(O)c(-c2ccc3[nH]cnc3c2)c1", "note": "[Formula I-28, 3-fluoro-4-hydroxy-5-(1H-benzimidazol-5-yl)benzamide]", "Mean (real-time quantitative PCR validation results of cardiomyocyte β-MHC)": 1.07}
{"compound": "CN(C)C(=O)c1cc(F)c(O)c(-c2ccc3[nH]cnc3c2)c1", "note": "[Formula I-31, 3-fluoro-4-hydroxy-N,N-dimethyl-5-(1H-benzimidazol-5-yl)benzamide]", "Mean (real-time quantitative PCR validation results of cardiomyocyte β-MHC)": 1.29}
{"compound": "O=C(O)c1ccc(O)c(-c2ccc3[nH]cnc3c2)c1", "note": "[Formula I-33, 4-hydroxy-3-(1H-benzimidazol-5-yl)benzoic acid]", "Mean (real-time quantitative PCR validation results of cardiomyocyte β-MHC)": 1.22}
{"compound": "COC(=O)c1cc(C#N)c(O)c(-c2ccc3[nH]cnc3c2)c1", "note": "[Formula I-38, methyl 3-cyano-4-hydroxy-5-(1H-benzimidazol-5-yl) benzoate]", "Mean (real-time quantitative PCR validation results of cardiomyocyte β-MHC)": 1.26}
{"compound": "C=CCc1cc(F)c(O)c(-c2ccc3[nH]cnc3c2)c1", "note": "[Formula I-40, 4-allyl-2-(1H-benzimidazol-5-yl)-6-fluorophenol]", "Mean (real-time quantitative PCR validation results of cardiomyocyte β-MHC)": 1.28}
{"compound": "C=CCc1cc(C#N)c(O)c(-c2ccc3[nH]cnc3c2)c1", "note": "[Formula I-41, 5-allyl-3-(1H-benzimidazol-5-yl)-2-hydroxybenzonitrile]", "Mean (real-time quantitative PCR validation results of cardiomyocyte β-MHC)": 1.37}
{"compound": "CCCc1ccc(O)c(-c2ccc3[nH]cnc3c2)c1", "note": "[Formula I-45, 2-(1H-benzimidazol-5-yl)-4-propylphenol]", "Mean (real-time quantitative PCR validation results of cardiomyocyte β-MHC)": 1.39}
{"compound": "Cc1nc2cc(-c3cc(C(=O)N(C)C)cc(C#N)c3C(C)(C)O)ccc2[nH]1", "note": "[Formula II-9, 3-cyano-4-(2-hydroxypropan-2-yl)-N,N-dimethyl-5-(2-methyl-1H-benzimidazol-5-yl)benzamide]", "Mean (real-time quantitative PCR validation results of cardiomyocyte β-MHC)": 1.18}
{"compound": "Cc1nc2cc(-c3cc(C(=O)O)ccc3C(C)(C)O)ccc2[nH]1", "note": "[Formula II-10, 4-(2-hydroxypropan-2-yl)-3-(2-methyl-1H-benzimidazol-5-yl)benzoic acid]", "Mean (real-time quantitative PCR validation results of cardiomyocyte β-MHC)": 1.27}
{"compound": "C=CCc1cc(F)c(C(C)(C)O)c(-c2ccc3[nH]c(C)nc3c2)c1", "note": "[Formula II-17, 2-(4-allyl-2-fluoro-6-(2-methyl-1H-benzimidazol-5-yl)phenyl)propane-2-ol]", "Mean (real-time quantitative PCR validation results of cardiomyocyte β-MHC)": 1.13}
{"compound": "C=CCc1cc(C#N)c(C(C)(C)O)c(-c2ccc3[nH]c(C)nc3c2)c1", "note": "[Formula II-18, 5-allyl-2-(2-hydroxypropan-2-yl)-3-(2-methyl-1H-benzimidazol-5-yl)benzonitrile]", "Mean (real-time quantitative PCR validation results of cardiomyocyte β-MHC)": 1.19}
{"compound": "CC(C)(O)c1ccc(F)cc1-c1ccc2[nH]cnc2c1", "note": "[Formula II-25, 2-(4-fluoro-2-(1H-benzimidazol-5-yl)phenyl)propane-2-ol]", "Mean (real-time quantitative PCR validation results of cardiomyocyte β-MHC)": 1.52}
{"compound": "CC(C)(O)c1c(F)cc(F)cc1-c1ccc2[nH]cnc2c1", "note": "[Formula II-26, 2-(2,4-difluoro-6-(1H-benzimidazol-5-yl)phenyl)propane-2-ol]", "Mean (real-time quantitative PCR validation results of cardiomyocyte β-MHC)": 1.42}
{"compound": "CC(C)(O)c1c(C#N)cc(C(N)=O)cc1-c1ccc2[nH]cnc2c1", "note": "[Formula II-30, 3-cyano-4-(2-hydroxypropan-2-yl)-5-(1H-benzimidazol-5-yl)benzamide]", "Mean (real-time quantitative PCR validation results of cardiomyocyte β-MHC)": 1.21}
{"compound": "CC(C)(O)c1c(C#N)cc(C(=O)O)cc1-c1ccc2[nH]cnc2c1", "note": "[Formula II-36, 3-cyano-4-(2-hydroxypropan-2-yl)-5-(1H-benzimidazol-5-yl)benzoic acid]", "Mean (real-time quantitative PCR validation results of cardiomyocyte β-MHC)": 1.41}
{"compound": "C=CCc1cc(C#N)c(C(C)(C)O)c(-c2ccc3[nH]cnc3c2)c1", "note": "[Formula II-42, 5-allyl-2-(2-hydroxypropan-2-yl)-3-(1H-benzimidazol-5-yl)benzonitrile]", "Mean (real-time quantitative PCR validation results of cardiomyocyte β-MHC)": 1.48}
{"compound": "CC(C)(O)c1ccc(CC#N)cc1-c1ccc2[nH]cnc2c1", "note": "[Formula II-43, 2-(4-(2-hydroxypropan-2-yl)-3-(1H-benzimidazol-5-yl)phenyl)acetonitrile]", "Mean (real-time quantitative PCR validation results of cardiomyocyte β-MHC)": 1.21}
{"compound": "Cc1nc2cc(-c3cc(F)ccc3C(C)O)ccc2[nH]1", "note": "(stereo not drawn) [Formula II-49, 1-(4-fluoro-2-(2-methyl-1H-benzimidazol-5-yl)phenyl)ethane-1-ol]", "Mean (real-time quantitative PCR validation results of cardiomyocyte β-MHC)": 1.36}
{"compound": "Cc1nc2cc(-c3cc(C(N)=O)cc(C#N)c3C(C)O)ccc2[nH]1", "note": "(stereo not drawn) [Formula II-54, 3-cyano-4-(1-hydroxyethyl)-5-(2-methyl-1H-benzimidazol-5-yl)benzamide]", "Mean (real-time quantitative PCR validation results of cardiomyocyte β-MHC)": 1.28}
{"compound": "Cc1nc2cc(-c3cc(C(=O)N(C)C)cc(C#N)c3C(C)O)ccc2[nH]1", "note": "(stereo not drawn) [Formula II-57, 3-cyano-4-(1-hydroxyethyl)-N,N-dimethyl-5-(2-methyl-1H-benzimidazol-5-yl)benzamide]", "Mean (real-time quantitative PCR validation results of cardiomyocyte β-MHC)": 1.26}
{"compound": "COC(=O)c1cc(C#N)c(C(C)O)c(-c2ccc3[nH]c(C)nc3c2)c1", "note": "(stereo not drawn) [Formula II-63, methyl 3-cyano-4-(1-hydroxyethyl)-5-(2-methyl-1H-benzimidazol-5-yl) benzoate]", "Mean (real-time quantitative PCR validation results of cardiomyocyte β-MHC)": 1.36}
{"compound": "C=CCc1ccc(C(C)O)c(-c2ccc3[nH]c(C)nc3c2)c1", "note": "(stereo not drawn) [Formula II-64, 1-(4-allyl-2-(2-methyl-1H-benzimidazol-5-yl)phenyl)ethane-1-ol]", "Mean (real-time quantitative PCR validation results of cardiomyocyte β-MHC)": 1.22}
{"compound": "CC(O)c1c(C#N)cc(C(N)=O)cc1-c1ccc2[nH]cnc2c1", "note": "(stereo not drawn) [Formula II-78, 3-cyano-4-(1-hydroxyethyl)-5-(1H-benzimidazol-5-yl)benzamide]", "Mean (real-time quantitative PCR validation results of cardiomyocyte β-MHC)": 1.35}
{"compound": "CC(O)c1ccc(C(=O)O)cc1-c1ccc2[nH]cnc2c1", "note": "(stereo not drawn) [Formula II-82, 4-(1-hydroxyethyl)-3-(1H-benzimidazol-5-yl)benzoic acid]", "Mean (real-time quantitative PCR validation results of cardiomyocyte β-MHC)": 1.15}
{"compound": "C=CCc1cc(C#N)c(C(C)O)c(-c2ccc3[nH]cnc3c2)c1", "note": "(stereo not drawn) [Formula II-90, 5-allyl-2-(1-hydroxyethyl)-3-(1H-benzimidazol-5-yl)benzonitrile]", "Mean (real-time quantitative PCR validation results of cardiomyocyte β-MHC)": 1.27}
{"compound": "CC(O)c1ccc(CC#N)cc1-c1ccc2[nH]cnc2c1", "note": "(stereo not drawn) [Formula II-91, 2-(4-(1-hydroxyethyl)-3-(1H-benzimidazol-5-yl)phenyl)acetonitrile]", "Mean (real-time quantitative PCR validation results of cardiomyocyte β-MHC)": 1.57}
{"compound": "CCCc1cc(F)c(C(C)O)c(-c2ccc3[nH]cnc3c2)c1", "note": "(stereo not drawn) [Formula II-95, 1-(2-fluoro-6-(1H-benzimidazol-5-yl)-4-propylphenyl)ethane-1-ol]", "Mean (real-time quantitative PCR validation results of cardiomyocyte β-MHC)": 1.24}
{"compound": "Cc1nc2cc(-c3cc(C(N)=O)cc(C#N)c3CO)ccc2[nH]1", "note": "[Formula II-102, 3-cyano-4-(hydroxymethyl)-5-(2-methyl-1H-benzimidazol-5-yl)benzamide]", "Mean (real-time quantitative PCR validation results of cardiomyocyte β-MHC)": 1.28}
{"compound": "Cc1nc2cc(-c3cc(C(=O)N(C)C)cc(F)c3CO)ccc2[nH]1", "note": "[Formula II-104, 3-fluoro-4-(hydroxymethyl)-N,N-dimethyl-5-(2-methyl-1H-benzimidazol-5-yl)benzamide]", "Mean (real-time quantitative PCR validation results of cardiomyocyte β-MHC)": 1.25}
{"compound": "COC(=O)c1cc(F)c(CO)c(-c2ccc3[nH]c(C)nc3c2)c1", "note": "[Formula II-110, methyl 3-fluoro-4-(hydroxymethyl)-5-(2-methyl-1H-benzimidazol-5-yl) benzoate]", "Mean (real-time quantitative PCR validation results of cardiomyocyte β-MHC)": 1.34}
{"compound": "Cc1nc2cc(-c3cc(CC#N)cc(F)c3CO)ccc2[nH]1", "note": "[Formula II-116, 2-(3-fluoro-4-(hydroxymethyl)-5-(2-methyl-1H-benzimidazol-5-yl)phenyl)acetonitrile]", "Mean (real-time quantitative PCR validation results of cardiomyocyte β-MHC)": 1.58}
{"compound": "CCCc1cc(C#N)c(CO)c(-c2ccc3[nH]c(C)nc3c2)c1", "note": "[Formula II-120, 2-(hydroxymethyl)-3-(2-methyl-1H-benzimidazol-5-yl)-5-propylbenzonitrile]", "Mean (real-time quantitative PCR validation results of cardiomyocyte β-MHC)": 1.45}
{"compound": "CN(C)C(=O)c1cc(F)c(CO)c(-c2ccc3[nH]cnc3c2)c1", "note": "[Formula II-128, 3-fluoro-4-(hydroxymethyl)-N,N-dimethyl-5-(1H-benzimidazol-5-yl)benzamide]", "Mean (real-time quantitative PCR validation results of cardiomyocyte β-MHC)": 1.27}
{"compound": "CN(C)C(=O)c1cc(C#N)c(CO)c(-c2ccc3[nH]cnc3c2)c1", "note": "[Formula II-129, 3-cyano-4-(hydroxymethyl)-N,N-dimethyl-5-(1H-benzimidazol-5-yl)benzamide]", "Mean (real-time quantitative PCR validation results of cardiomyocyte β-MHC)": 1.34}
{"compound": "COC(=O)c1ccc(CO)c(-c2ccc3[nH]cnc3c2)c1", "note": "[Formula II-133, methyl 4-(hydroxymethyl)-3-(1H-benzimidazol-5-yl) benzoate]", "Mean (real-time quantitative PCR validation results of cardiomyocyte β-MHC)": 1.46}
{"compound": "CCCc1ccc(CO)c(-c2ccc3[nH]cnc3c2)c1", "note": "[Formula II-142, (2-(1H-benzimidazol-5-yl)-4-propylphenyl)methanol]", "Mean (real-time quantitative PCR validation results of cardiomyocyte β-MHC)": 1.40}
